# Measurements published in ChEMBL document CHEMBL1201862, “PubChem BioAssay data set” (2004).
#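 Briefly, cells in 96-well plates were exposed to five compound concentrations for 48 h, and endpoints were estimated by linear interpolation. At the GI50, growth is halved.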 Active and inactive are the calls of the source. Rule as the data show it: active = GI50 up to about 1.1 µM and inactive = higher.
# What was measured:
# Experiment in all cases: NCI tumour cell line growth inhibition, 48 h
# SK-OV-3 = tested on: SK-OV-3
# OVCAR-4 = tested on: OVCAR-4
# PC-3 = tested on: PC-3
# EKVX = tested on: EKVX
# COLO 205 = tested on: COLO 205
# HT-29 = tested on: HT-29
# 786-0 = tested on: 786-0
# ACHN = tested on: ACHN
# KM12 = tested on: KM12
# HCT-116 = tested on: HCT-116
# RPMI-8226 = tested on: RPMI-8226
# MDA-MB-231 = tested on: MDA-MB-231
# UO-31 = tested on: UO-31
# K562 = tested on: K562
# IGROV-1 = tested on: IGROV-1
# NCI/ADR-RES = tested on: NCI/ADR-RES
# SK-MEL-5 = tested on: SK-MEL-5
# NCI-H460 = tested on: NCI-H460
# HOP-62 = tested on: HOP-62
# A549 = tested on: A549
Compound,GI50 (SK-OV-3),GI50 (OVCAR-4),GI50 (PC-3),GI50 (EKVX),GI50 (COLO 205),GI50 (HT-29),GI50 (786-0),GI50 (ACHN),GI50 (KM12),GI50 (HCT-116),GI50 (RPMI-8226),GI50 (MDA-MB-231),GI50 (UO-31),GI50 (K562),GI50 (IGROV-1),GI50 (NCI/ADR-RES),GI50 (SK-MEL-5),GI50 (NCI-H460),GI50 (HOP-62),GI50 (A549)
CCN(CC)CCN1c2ccccc2Sc2ccc3ccccc3c21,15.8 µM (inactive),5.36 µM (inactive),6.73 µM (inactive),6.37 µM (inactive),4.75 µM (inactive),3.18 µM (inactive),11.3 µM (inactive),13.7 µM (inactive),7 µM (inactive),10.8 µM (inactive),3.33 µM (inactive),6.03 µM (inactive),5.81 µM (inactive),4.66 µM (inactive),10.2 µM (inactive),10.6 µM (inactive),4.72 µM (inactive),2.07 µM (inactive),14.9 µM (inactive),14.2 µM (inactive)
COC1(OC)C=CC2C1C1C=CC2C1(OC)OC (stereo not given),> 100 µM (inactive),> 100 µM (inactive),> 100 µM (inactive),> 100 µM (inactive),> 100 µM (inactive),> 100 µM (inactive),> 100 µM (inactive),> 100 µM (inactive),> 100 µM (inactive),> 100 µM (inactive),> 100 µM (inactive),> 100 µM (inactive),> 100 µM (inactive),> 100 µM (inactive),> 100 µM (inactive),> 100 µM (inactive),> 100 µM (inactive),> 100 µM (inactive),> 100 µM (inactive),> 100 µM (inactive)
Nc1ccc(Oc2ccc(C34CC5CC(C3)CC(c3ccc(Oc6ccc(N)cc6)cc3)(C5)C4)cc2)cc1,22.2 µM (inactive),8.79 µM (inactive),6.28 µM (inactive),25.4 µM (inactive),14.5 µM (inactive),8.11 µM (inactive),10.2 µM (inactive),19.5 µM (inactive),7.67 µM (inactive),7.55 µM (inactive),4.14 µM (inactive),11.1 µM (inactive),33 µM (inactive),15.8 µM (inactive),5.38 µM (inactive),13.9 µM (inactive),12.6 µM (inactive),10.7 µM (inactive),17.5 µM (inactive),11.1 µM (inactive)
N/C(=N\c1ccc(Cl)cc1)NS(=O)(=O)c1ccc(S(=O)(=O)c2ccccc2)s1,38.7 µM (inactive),17.5 µM (inactive),14.2 µM (inactive),12.9 µM (inactive),18.4 µM (inactive),21.7 µM (inactive),19.9 µM (inactive),20.9 µM (inactive),22.8 µM (inactive),15.4 µM (inactive),16.6 µM (inactive),12.9 µM (inactive),16.6 µM (inactive),18.8 µM (inactive),13.8 µM (inactive),18 µM (inactive),15.8 µM (inactive),17.3 µM (inactive),18.1 µM (inactive),23.9 µM (inactive)
NC(=O)NNCc1c(-c2ccccc2)no[n+]1[O-],> 100 µM (inactive),> 100 µM (inactive),> 100 µM (inactive),> 100 µM (inactive),> 100 µM (inactive),> 100 µM (inactive),> 100 µM (inactive),> 100 µM (inactive),> 100 µM (inactive),> 100 µM (inactive),> 100 µM (inactive),> 100 µM (inactive),> 100 µM (inactive),> 100 µM (inactive),> 100 µM (inactive),> 100 µM (inactive),> 100 µM (inactive),> 100 µM (inactive),> 100 µM (inactive),> 100 µM (inactive)
CN(C)c1ccc(/C=C2\N=C(c3ccccc3)N(c3nc4c(Cl)cc(Cl)cc4s3)C2=O)cc1,> 100 µM (inactive),39.2 µM (inactive),32.4 µM (inactive),21.8 µM (inactive),55.8 µM (inactive),38.4 µM (inactive),77.1 µM (inactive),59 µM (inactive),34.2 µM (inactive),35.2 µM (inactive),14.9 µM (inactive),29.7 µM (inactive),43.8 µM (inactive),31.6 µM (inactive),41 µM (inactive),43.7 µM (inactive),41.8 µM (inactive),27.7 µM (inactive),> 100 µM (inactive),49.9 µM (inactive)
O=C(O)CC12CC3CC(CC(O)(C3)C1)C2,> 100 µM (inactive),> 100 µM (inactive),> 100 µM (inactive),> 100 µM (inactive),> 100 µM (inactive),> 100 µM (inactive),> 100 µM (inactive),> 100 µM (inactive),> 100 µM (inactive),> 100 µM (inactive),> 100 µM (inactive),> 100 µM (inactive),> 100 µM (inactive),> 100 µM (inactive),> 100 µM (inactive),> 100 µM (inactive),> 100 µM (inactive),> 100 µM (inactive),> 100 µM (inactive),> 100 µM (inactive)
CC1N=C(c2ccccc2)OC1=O (stereo not given),> 100 µM (inactive),> 100 µM (inactive),> 100 µM (inactive),> 100 µM (inactive),> 100 µM (inactive),> 100 µM (inactive),> 100 µM (inactive),> 100 µM (inactive),> 100 µM (inactive),> 100 µM (inactive),> 100 µM (inactive),> 100 µM (inactive),> 100 µM (inactive),> 100 µM (inactive),> 100 µM (inactive),> 100 µM (inactive),> 100 µM (inactive),> 100 µM (inactive),> 100 µM (inactive),> 100 µM (inactive)
CCCC(=O)Nc1cc(/C=C/C(=O)N2C[C@H]3C[C@@]34C2=CC(=O)c2[nH]cc(C)c24)n(C)c1,0.00401 µM (active),< 0.0025 µM (active),< 0.0025 µM (active),< 0.0025 µM (active),< 0.0025 µM (active),< 0.0025 µM (active),< 0.0025 µM (active),< 0.0025 µM (active),< 0.0025 µM (active),< 0.0025 µM (active),0.0161 µM (active),< 0.0025 µM (active),0.00403 µM (active),< 0.0025 µM (active),< 0.0025 µM (active),0.00982 µM (active),< 0.0025 µM (active),< 0.0025 µM (active),< 0.0025 µM (active),0.00395 µM (active)
CSc1ncc2c(C#N)c3sc4ccccc4n3c(=O)c2n1,80.7 µM (inactive),45.8 µM (inactive),> 100 µM (inactive),> 100 µM (inactive),> 100 µM (inactive),> 100 µM (inactive),41.8 µM (inactive),> 100 µM (inactive),54.2 µM (inactive),> 100 µM (inactive),> 100 µM (inactive),41.1 µM (inactive),> 100 µM (inactive),> 100 µM (inactive),> 100 µM (inactive),38.8 µM (inactive),64.6 µM (inactive),22.4 µM (inactive),30.4 µM (inactive),78.3 µM (inactive)
COC(=O)C(Cc1ccccc1)NC(=O)CCCNC(=O)OCc1ccccc1 (stereo not given),> 100 µM (inactive),> 100 µM (inactive),> 100 µM (inactive),> 100 µM (inactive),77.4 µM (inactive),> 100 µM (inactive),> 100 µM (inactive),33 µM (inactive),> 100 µM (inactive),> 100 µM (inactive),87.3 µM (inactive),> 100 µM (inactive),> 100 µM (inactive),> 100 µM (inactive),> 100 µM (inactive),> 100 µM (inactive),22.4 µM (inactive),> 100 µM (inactive),> 100 µM (inactive),> 100 µM (inactive)
COc1ccc2nc3ccccc3c(NCCCCN(C)CCCl)c2c1,0.0775 µM (active),0.0889 µM (active),0.0569 µM (active),0.393 µM (active),< 0.01 µM (active),0.0178 µM (active),0.0177 µM (active),< 0.0174 µM (active),0.0407 µM (active),0.0199 µM (active),< 0.01 µM (active),0.144 µM (active),0.107 µM (active),0.0231 µM (active),0.0408 µM (active),0.0611 µM (active),0.0773 µM (active),0.014 µM (active),0.082 µM (active),0.0286 µM (active)
O=C(Cn1c(C(=O)/C=C/c2ccc(Cl)c(Cl)c2)nc2ccccc21)c1ccccc1,28.6 µM (inactive),25.6 µM (inactive),29.3 µM (inactive),14.4 µM (inactive),17.8 µM (inactive),16 µM (inactive),18.8 µM (inactive),28 µM (inactive),19.6 µM (inactive),15.9 µM (inactive),23.8 µM (inactive),22.7 µM (inactive),24.8 µM (inactive),33.7 µM (inactive),22.6 µM (inactive),21.8 µM (inactive),16.9 µM (inactive),16.2 µM (inactive),26 µM (inactive),21.7 µM (inactive)
COc1cc2c(c(OC)c1OC)-c1ccc(SC)c(=O)cc1[C@@H](NC(=O)C(F)(F)F)CC2,0.13 µM (active),10.3 µM (inactive),< 0.01 µM (active),13.8 µM (inactive),< 0.01 µM (active),< 0.01 µM (active),< 0.01 µM (active),< 0.01 µM (active),< 0.01 µM (active),< 0.01 µM (active),< 0.01 µM (active),< 0.01 µM (active),< 0.0146 µM (active),< 0.01 µM (active),< 0.01 µM (active),0.0261 µM (active),< 0.01 µM (active),< 0.01 µM (active),< 0.0103 µM (active),< 0.01 µM (active)
